In US10716795B2, “Steroid analogues for neuroprotection” (Emory University, priority 2008, dated 2020):
Values after ≈ are worked out from the molar mass of the structure shown. Counter-ions that a name gives are not always drawn.

What was measured:
Primary cortical cells = test: MTT assay of glutamate toxicity in primary cortical cells; format: cell-based; conditions: for reduction in cell death at 5 μM: 5 μM compound, glutamate 0.5 μM 24 h; for reduction in cell death best concentration: 24 h pre-treatment, then glutamate 0.5 μM 24 h, at the best concentration; for best concentration (for reduction in cell death): tested 0.1-80 μM, glutamate 0.5 μM; for cell survival / reduction in cell death (in words): glutamate toxicity, cortical neurons
Protocol: Primary cortical cells were seeded in multi-well plates and cultured for 8 days. […] Cells were next exposed to glutamate (0.5 μM) for the following 24 h. Cytotoxicity was assessed by the MTT [3-(4,5-dimethylthiazol-2-yl)-2,5-diphenyltetrazolium bromide] assay, which is based on the ability of a mitochondrial dehydrogenase enzyme from viable cells to cleave the tetrazolium rings of the pale yellow MTT. This reaction forms dark blue formazan crystals which are largely impermeable to cell membranes, thus resulting in their accumulation within healthy cells. Solubilization of the cells results in the liberation of the crystals, which are then also solubilized. The number of surviving cells is directly proportional to the level of the formazan product created.

physchem = test: physchem
Protocol: Several compounds were screened for solubility (FIG. 2). Solubility testing was done in phosphate buffered saline, which is considered to be a good model system for physiological conditions. Compounds were added in small portions at room temperature with stirring until a visible endpoint of saturation was reached.

cerebral edema = cerebral edema assay in whole animal model of TBI (cortical contusion); format: in vivo, rat; conditions: for efficacy in the cerebral edema assay (edema reduction) relative to PROG or group / mean % difference edema (injured vs non-injured tissue): male rats, cortical contusion; for efficacy in the cerebral edema assay (edema reduction) relative to PROG or group: two 8 mg/kg doses at 1 h and 6 h; for mean % difference edema (injured vs non-injured tissue): two 8 mg/kg doses at 1 h and 6 h post-surgery, brain tissue 24 hours post brain injury; for edema compared to subjects treated with vehicle: rat brain tissue 24 hours post brain injury
Protocol: Anesthetized male rats were first subjected to cortical contusion and were then given two 8 mg/kg doses of the test compound, the first at 1 h post-surgery and the second at 6 h. The animals were then sacrificed and tissue samples were taken from both injured and non-injured sections of the brain. Wet and dry weights were collected for each sample and cerebral edema (% water content) was determined as the difference in wet and dry weights divided by the wet weight. A “% mean difference” value could then be calculated based on the relative edema difference between injured and non-injured tissue samples for a given animal. […] The “vehicle” group were subjected to cortical injury but received only the drug carrier (22.5% 2-hydroxypropyl-β-cyclodextrine in water). All experimental treatments given by injection were made in stock solutions using 2-Hydroxypropyl-b-cyclodextrin (HBC; 45% w/v solution in H2O) as the solvent. These experimental solutions were then diluted 1:1 with sterile water for a final concentration of HBC of 22.5%.

[1] = pharmacokinetic analysis in non-injury whole animal rat study (serum levels); conditions: IV 10 mg/kg, serum over 12 h
Protocol: Select compounds were submitted for pharmacokinetic analysis in a non-injury whole animal rat study.
The compounds were intravenously (IV) dosed at 10 mg/kg and serum samples were taken at several time points over the course of 12 h. Serum concentration levels were determined for the analogues, as well as for their respective parent compound.

[2] = cited from earlier work
[3] = PROG IP at 4 mg/kg, male rats; cited from earlier work
glutathione reductase = glutathione reductase activity following TBI; format: in vivo; conditions: relative to progesterone and allopregnanolone
[4] = test system: PR-mediated gene transcription; test: PR-mediated gene transcription; format: cell-based
[5] = aqueous buffer, thermodynamic from solid

Compound	reduction in cell death at 5 μM (Primary cortical cells)	reduction in cell death best concentration (Primary cortical cells)	best concentration (for reduction in cell death) (Primary cortical cells)	efficacy in the cerebral edema assay (edema reduction) relative to PROG or group (cerebral edema)	in vivo stability of amino acid side chain / conversion to parent compound [1]	also measured
CC(=O)[C@H]1CC[C@H]2[C@@H]3CC[C@H]4C[C@H](O)CC[C@]4(C)[C@H]3CC[C@]12C [ALLO, allopregnanolone, reference compound]	−3%	40%	80 µM	–	–	–
CC(=O)[C@H]1CCC2C3CCC4=C[C@@H](OC(=O)[C@@H](N)C(C)C)CC[C@]4(C)C3CC[C@@]21C (stereo partly drawn) [Compound P1-31, 3β-L-Valine-progesterone-HC]	–	–	–	equivalent efficacy to progesterone	cleaved almost immediately	solubility (physchem; [5]): 3850 µg/mL (≈ 9.26 mM); mean % difference edema (injured vs non-injured tissue) (cerebral edema): 2.2%; edema compared to subjects treated with vehicle (cerebral edema): decrease in edema
CC(=O)[C@H]1CC[C@H]2[C@@H]3CCC4=C[C@@H](OC(=O)[C@@H]5CCCN5)CC[C@]4(C)[C@H]3CC[C@]12C [Compound P1-33, 3β-L-Proline-progesterone-HCl]	–	–	–	–	cleaved almost immediately	–
CC(C)[C@H](N)C(=O)O[C@@H](C)[C@H]1CCC2C3CCC4=CC(=O)CC[C@]4(C)C3CC[C@@]21C (stereo partly drawn) [Compound P1-57, 20-S-L-Valine-progesterone HCl Salt]	23%	30%	10 µM	–	–	cell survival / reduction in cell death (in words) (Primary cortical cells): significant reductions in cell death
CC(=O)[C@H]1CCC2C3CCC4=C/C(=N/OC(=O)[C@@H](N)Cc5c[nH]c6ccccc56)CC[C@]4(C)C3CC[C@@]21C (stereo partly drawn) [Compound P1-79, O-L-Tryptophan-C3-oxime-progesterone HCl Salt]	–	–	–	–	–	mean % difference edema (injured vs non-injured tissue) (cerebral edema): 1.9%; edema compared to subjects treated with vehicle (cerebral edema): decrease in edema
CC(=O)[C@H]1CCC2C3CC[C@H]4C[C@H](OC(=O)[C@@H](N)C(C)C)CC[C@]4(C)C3CC[C@@]21C (stereo partly drawn) [Compound P1-131, 3α-L-Valine-5α-pregnan-20-one HCl Salt]	–	–	–	greatest edema reduction among the ALLO isomer group	stable for a prolonged period of time and only gradually converted to its parent, ALLO	–
CC(=O)[C@H]1CCC2C3CC[C@@H]4C[C@H](OC(=O)[C@@H](N)C(C)C)CC[C@]4(C)C3CC[C@@]21C (stereo partly drawn) [Compound P1-133, 3α-L-Valine-5-pregnane-20-one HCl Salt]	–	–	–	–	–	solubility (physchem; [5]): 330 µg/mL
CC(=O)[C@H]1CC[C@H]2[C@@H]3CCC4=C/C(=N/OC(=O)[C@@H](N)C(C)C)CC[C@]4(C)[C@H]3CC[C@]12C [Compound P1-185, 3-Valine-E-oxime-progesterone HCl]	27%	27%	5 µM	equivalent efficacy to progesterone	–	cell survival / reduction in cell death (in words) (Primary cortical cells): highest levels of cell survival among the compounds screened; solubility (physchem; [5]): 13000 µg/mL
CC(=O)[C@H]1CC[C@H]2[C@@H]3CCC4=C/C(=N\OC(=O)[C@@H](N)C(C)C)CC[C@]4(C)[C@H]3CC[C@]12C [Compound P1-186, 3-Valine-Z-oxime-progesterone HCl]	34%	34%	5 µM	average reduction in edema levels almost twice that of PROG	readily cleaved to give primarily the parent oxime P2-02	cell survival / reduction in cell death (in words) (Primary cortical cells): highest levels of cell survival among the compounds screened; solubility (physchem; phosphate buffered saline, room temperature, visible endpoint of saturation): 15200 µg/mL
CC(=O)[C@H]1CCC2C3CCC4=CC(=O)CC[C@]4(C)C3CC[C@@]21C (some centres unmarked) [PROG, progesterone, reference compound]	4%	42%	20 µM	–	–	reduction of mortality ([2]; 100 moderate to severe TBI patients, 3 days intravenous treatment): over 60%; functional outcomes ([2]; 30 days post-injury): significantly improved functional outcomes; mean % difference edema (injured vs non-injured tissue) (cerebral edema): 2.0%; edema compared to subjects treated with vehicle (cerebral edema): decrease in edema; maximum serum concentration [3]: 28 ng/mL
CC(=O)[C@@H]1CCC2C3CCC4=CC(=O)CC[C@@]4(C)C3CC[C@]21C (stereo partly drawn) [ent-PROG, ent-Progesterone]	–	–	–	–	–	glutathione reductase activity (glutathione reductase): significantly increased glutathione reductase activity; activation of PR-mediated gene transcription [4]: does not activate
